Assay results: PubChem BioAssay AID1508612

Assay: passive permeability, PAMPA, ADME assay (AID 1508612)
Settings: pH 7.4, 30.0 min, 50.0 µM

| Compound | Papp [×10⁻⁶ cm/s] |
| --- | --- |
| CCOc1ccc(CCNC(=O)c2cc3ccccc3n2Cc2cccc(C)n2)cc1OCC | > 1000 |
| Clc1ccc(-c2noc3ncnc(N4CCCCC4)c23)cc1 | > 1000 |
| C[C@H]1[C@@H](CCC(=O)Nc2ccc(F)cc2)O[C@@H]2O[C@]3(C)CC[C@@H]4[C@H](C)CC[C@@H]1[C@@]24OO3 | > 1000 |
| COc1cc(/C=C2\C(=O)Nc3ccccc32)ccc1O | > 1000 |
| CCOc1ccc(N2CC(c3nc(-c4ccccn4)no3)CC2=O)cc1 (configuration not stated) | 297 |
| CN1Cc2c(cc(N3CCOCC3)nc2-c2ccccc2OC(F)(F)F)C1=O | > 1000 |
| CCCCc1ccc(NC(=O)c2ccc3c(c2)N(S(C)(=O)=O)CC3)cc1 | 706 |
| COC(=O)c1ccc(Nc2nc(-c3ccncc3)nc3ccccc23)cc1OC | 676 |
| CCCc1ccc(C(=O)NC(=O)c2ccccc2O)cc1 | < 1 |
| Cc1ccc(-n2ncc3c(NCCCN(C)C)ncnc32)cc1Cl | > 1000 |
| NC(=O)C1CCN(c2nc(-c3cccs3)cs2)CC1 | 195 |
| Oc1ccc(NCc2ccccc2OCc2ccccc2Cl)cc1 | 79.5 |
| COc1nccc(-c2nc(Nc3ccc(F)c(F)c3)c3ccccc3n2)c1OC | > 1000 |
| CCCCOC(=O)c1ccnc2cc(C(OCCN3CCCCC3)c3ccccc3Cl)sc12 (configuration not stated) | 828 |
| NC(=O)C1CCN(c2nccc(-c3ccc4c(c3)OCCCO4)n2)CC1 | 653 |
| CN1C(=O)c2ccccc2[S@](=O)c2ccc(C(=O)NCc3ccc(Br)cc3)cc21 | > 1000 |
| Cc1nn2c(c1-c1ccccc1-c1ccccc1)N(Cc1ccc(O)cc1)CCC2 | 1.8 |
| CC(C)Oc1ccc(C(=O)Nc2ccc3c(c2)CCCN3C(=O)c2cccs2)cc1 | 491 |
| O=C(c1cc2ccccc2[nH]1)N1CCc2c(n(Cc3cccnc3)n(CCc3ccccc3)c2=O)C1 | 381 |
| Cc1ccc(S(=O)(=O)N2CCN(C(=O)c3cc4c(s3)CCC4)CC2)cc1 | > 1000 |
| COc1cccc(CNc2ccc(S(=O)(=O)Nc3ccccc3)cc2)c1O | > 1000 |
| O=C(NC1CCCc2c1[nH]c1c(Cl)cccc21)c1ccc2c(c1)OCO2 (configuration not stated) | 51 |

| Compound | Papp [×10⁻⁶ cm/s] |
| --- | --- |
| COc1ccc(CNc2ccc(S(=O)(=O)Nc3nccs3)cc2)cc1O | 19.3 |
| Cc1ccccc1C(=O)N1CCC(C(=O)N2CCC(N3Cc4ccccc4C3=O)CC2)CC1 | 50.8 |
| CN(C)C(=O)c1cc(-c2ccc(S(C)(=O)=O)cc2)c2cnn(C)c2n1 | 22.6 |
| CN(C)c1cccc(-c2cnc(N3CCC(C(N)=O)CC3)nc2)c1 | 273 |
| CC(=O)c1c(C)[nH]c(C(=O)Nc2cccc(S(=O)(=O)Nc3cccc(C#N)c3)c2)c1C | 68.9 |
| CC1CCC(NC(=O)c2ccc3c(c2)N(Cc2ccccc2F)C(=O)c2ccccc2S3)CC1 (configuration not stated) | 2.7 |
| Cc1ccc(S(=O)(=O)Nc2cnccc2C(=O)Nc2nc(-c3cccnc3)cs2)cc1 | 104 |
| C#CCNC(=O)c1nc(-c2cccnc2)c2ccccn12 | 507 |
| COc1cc(-c2nc(-c3c(C)noc3C)cc3c2cc(C)n3CCN(C)C)ccn1 | > 1000 |
| CC(=O)Nc1ccc(C(=O)Nc2ccccc2N)cc1 | < 1 |
| Cc1cc(-c2nnc3n2CCCCC3)c(C)n1-c1cccc(C(F)(F)F)c1 | > 1000 |
| CC[C@H](Nc1ncnc2nc[nH]c12)c1nc2cccc(F)c2c(=O)n1-c1ccccc1 | 169 |
| Cc1ccnc(NC(=S)N2CCN(c3ccc(C(F)(F)F)cc3[N+](=O)[O-])CC2)c1 | > 1000 |
| Cc1ccc(OCCn2c(CCNC(=O)c3ccc(Cl)cc3)nc3ccccc32)cc1 | 754 |
| O=C(/C=C/c1cn(CC(O)CN2CCCCCC2)c2ccccc12)c1ccc(Br)cc1 (configuration not stated) | 931 |
| COc1ccc(NC(=O)c2[nH]c(C)c(C(C)=O)c2C)cc1S(=O)(=O)Nc1ccc(C#N)cc1 | 35.7 |
| CC(=O)NC(c1cccs1)c1cc(Br)c2cccnc2c1O (configuration not stated) | 73 |
| CC(C)(C)c1ccc(S(=O)(=O)c2cnc(SCC(=O)Nc3ccc(F)c(Cl)c3)[nH]c2=O)cc1 | 6.49 |
| COc1ccc(-n2c(C)cc(-c3nnc4n3CCCCC4)c2C)cc1 | 488 |
| O=C(C1CC(=O)N(c2n[nH]c3ccccc23)C1)N1CCC(c2noc3cc(F)ccc23)CC1 (configuration not stated) | 726 |
| NC(=O)C1CCN(c2nc(-c3cc4ccccc4o3)cs2)CC1 | 66.2 |
| COc1cccc(C(=O)Nc2ccc3c(N4CCOCC4)ncnc3c2)c1 | 39 |

| Compound | Papp [×10⁻⁶ cm/s] |
| --- | --- |
| Cc1nc(Nc2n[nH]c3c2CN(C(=O)N[C@H](CN(C)C)c2ccccc2)C3(C)C)c2sccc2n1 | 2.31 |
| CCC(Sc1nc2ccccc2c2nc(CCc3c(C)n[nH]c3C)nn12)C(=O)Nc1ccc(F)cc1 (configuration not stated) | 37.9 |
| Clc1ccc(Nc2nc(-c3ccncc3)nc3ccccc23)cc1Cl | 76.1 |
| CNC(=O)C1CCN(c2nc(-c3ccc(Br)cc3)cs2)CC1 | 736 |
| C#Cc1ccc(NC(=O)c2cnn3c(C)cc(C)nc23)cc1 | 14 |
| c1ccc(-c2cc(Nc3nc(-c4ccncc4)nc4ccccc34)n[nH]2)cc1 | 39.4 |
| O=C(NCc1ccc(S(=O)(=O)c2cccc(C(F)(F)F)c2)cc1)c1cnc2[nH]ncc2c1 | 797 |
| O=C(Nc1ccc(N2CCN(C(=O)c3ccccc3F)CC2)cc1)c1cncc(Br)c1 | > 1000 |
| O=C(CCCCn1c(=O)[nH]c2ccsc2c1=O)N1CCN(c2cccc(Cl)c2)CC1 | 855 |
| CCc1ccc(NC(=O)c2cc3ncccn3n2)cc1 | 525 |
| Nc1ncnc(N2CCc3ccccc32)c1[N+](=O)[O-] | 295 |
| Cc1nsc(N)c1C(=O)N(C)CCOc1ccccc1Cl | 389 |
| Brc1ccccc1-c1nc(NCc2ccc(-c3cccnc3)cc2)c2ccccc2n1 | > 1000 |
| Nc1nc2c(s1)C(c1ccc(F)cc1F)CC(=O)N2 (configuration not stated) | 181 |
| CC(C)N(CCCNC(=O)Nc1ccc(C(C)(C)C)cc1)C[C@H]1O[C@@H](n2ccc3c(N)ncnc32)[C@H](O)[C@@H]1O | 10.7 |
| COc1cccc(CNc2ccc(S(=O)(=O)Nc3ccc(N4CCNCC4)cc3)cc2)c1O | > 1000 |
| CCc1cccc(NC(=O)c2cc(-c3ccc[nH]3)n[nH]2)c1 | 87.7 |
| Cc1csc2c1c(=O)n(O)c(=O)n2Cc1ccccc1 | 116 |
| O=C(NC1CC1)c1nc(-c2cccnc2)c2ccccn12 | 652 |
| CCCCCn1c(CCCNC(=O)c2ccccc2OC)nc2ccccc21 | > 1000 |
| NC(=O)C1CCN(c2ncc(-c3ccc4c(c3)OCO4)s2)CC1 | 692 |
| Cc1ccc2nc(-c3ccccn3)c(Nc3ccccc3C)n2c1 | > 1000 |

| Compound | Papp [×10⁻⁶ cm/s] |
| --- | --- |
| Cc1cccc(-c2[nH]c(C(C)(C)C)nc2-c2ccc3nccnc3c2)n1 | 512 |
| Clc1cccc(Nc2nc(-c3ccncc3)nc3ccccc23)c1 | 250 |
| CC(=O)N1CCc2c(sc3c2c(=O)n(-c2ccccc2Cl)c(=O)n3Cc2cccc(C)c2)C1 | 338 |
| Brc1ccc(-c2csc(N3CCCCC3)n2)cc1 | 111 |
| COc1cc(/C=C(\C#N)C(=O)c2ccc(O)c(O)c2)cc(I)c1O | < 1 |
| FC(F)(F)c1cccc(N2CCN(C(=S)Nc3ccccn3)CC2)c1 | > 1000 |
| COc1ccc(OC)c(-c2nnc3n2N=C(c2c(OC)cccc2OC)CS3)c1 | 617 |
| COc1ccc(-c2ccc(Nc3nc(-c4ccncc4)nc4ccccc34)cc2F)cc1F | 39.9 |
| CCOC(=O)N1CCN(Cc2nc3c(c(=O)n(C)c(=O)n3C)n2Cc2ccc(F)cc2)CC1 | 550 |
| Cn1ccc2cc(-c3csc(N4CCC(C(N)=O)CC4)n3)ccc21 | 823 |
| NC(=O)C1CCN(c2nc(-c3ccc(N4CCCCC4)nc3)cs2)CC1 | 23.9 |
| CNC1(c2ccccc2Cl)CCCCC1=O (configuration not stated) | > 1000 |
| O=C(Nc1ccc(S(=O)(=O)Nc2nccs2)cc1)c1cccc2ccccc12 | 11.9 |
| CCOC(=O)c1ccc(N2C(=O)c3n[nH]c(-c4ccco4)c3C2c2ccc(C)cc2)cc1 (configuration not stated) | 6.34 |
| COc1ccc(C)cc1NC(=O)c1cnc(-c2ccc(F)cc2)nc1-c1ccncc1 | 130 |
| O=C(NCCCc1ccccc1)c1cccc(-c2cc(O)c3ncccc3c2)c1 | < 1 |
| c1ccc(CNc2nc(NCc3ccccc3)c3ccccc3n2)cc1 | 253 |
| O=C(Nc1ccc(S(=O)(=O)Nc2nccs2)cc1)c1ccnc(-c2ccccc2)c1 | < 1 |
| COc1cccc(C(=O)Nc2nc(-c3nnn(-c4ccccc4C(F)(F)F)c3C)ns2)c1 | 383 |
| Cc1cc(-c2nnc3n2CCCCC3)c(C)n1-c1ccc(Cl)c(Cl)c1 | > 1000 |
| CCOc1ccc(C(C)CNC(=O)c2cc3sccc3n2Cc2ccccc2)cc1OCC (configuration not stated) | > 1000 |
| NC(=O)COCCN1CCN(C(c2ccccc2)c2ccc(Cl)cc2)CC1 (configuration not stated) | 359 |

| Compound | Papp [×10⁻⁶ cm/s] |
| --- | --- |
| Cc1noc(C)c1-c1csc(N2CCC(C(N)=O)CC2)n1 | 58.9 |
| CCN(CC)C(=O)c1sc2c(c1C)c(=O)n(Cc1ccccc1)c(=O)n2CC(=O)Nc1ccc(OC)cc1 | > 1000 |
| Cc1nn2c(c1-c1ccccc1-c1ccccc1)N(CC1CC1)CCC2 | > 1000 |
| CSc1ccc(-c2cnc(N3CCC(C(N)=O)CC3)s2)cc1 | 58.9 |
| COc1ccccc1N1CCN(c2ccc3cc(S(=O)(=O)N4CCCCC4)ccc3n2)CC1 | > 1000 |
| O=C1Cc2cc(C(=O)c3ccco3)ccc2N1 | 35.2 |
| N#Cc1cnc(NS(=O)(=O)c2ccc(NC(=O)Cc3ccc(F)c(Cl)c3)cc2)s1 | < 1 |
| COc1cc(-c2nc(Nc3ccc(F)c(F)c3)c3ccccc3n2)ccn1 | 22.5 |
| O=C(NC1CCCc2c1cnn2-c1ccc(F)cc1F)c1ccccc1 (configuration not stated) | > 1000 |
| Cc1ccc(S(=O)(=O)Nc2ccccc2C(=O)Nc2nc(-c3ccccc3)c(C)s2)cc1 | 30.1 |
| CN(C)c1ccc2cc(C(=O)N[C@@H](CCCN=C(N)CCl)C(=O)NCc3ccccc3)ccc2c1 | < 1 |
| CN[C@@H](C)C(=O)N[C@@H]1C(=O)N(Cc2c(C)ccc3ccccc23)c2ccc(C#N)cc2N(C(C)=O)[C@H]1C | 551 |
| O=C(Nc1nc(-c2ccccc2)cs1)c1ccncc1NS(=O)(=O)c1ccccc1F | 468 |
| CCOC(=O)C1CCN(C(=O)C(C)(C)NC(=O)Nc2ccc(Cl)cc2Cl)CC1 | 725 |
| COc1cc2c(cc1OCCCN1CCCC1)N=C(N)C21CCC1 | 6.08 |
| COc1ccccc1C(=O)Nc1nc2nc(C)cc(=O)n2[nH]1 | 7.8 |
| CC(C)c1nc(CN(C)C(=O)N[C@H](C(=O)N[C@@H](Cc2ccccc2)C[C@H](O)[C@H](Cc2ccccc2)NC(=O)OCc2cncs2)C(C)C)cs1 | > 1000 |
| Cc1cnc(-c2ccccc2OC(C)C)nc1NCc1ccc(-n2ccnn2)cc1 | > 1000 |
| CCC(CC)c1cc([C@H]2CN3CC[C@H]2C[C@@H]3CNC(C)=O)nc(-c2ccncc2)n1 | 994 |
